Calls of active or inactive are those of the source. No rule for the calls is given here.

For the assay, the target named is Signal transducer and activator of transcription 3 (Homo sapiens) (UniProt P40763). The assay can be described thus: STAT3 activation reporter response, dose response, cell-based (AID 1398).

As a reminder, the IC50 is the concentration needed to halve the response being measured. For the compound `Cc1nnc(NC(=O)c2oc3c(ccc4ccccc43)c2C)s1`, the IC50 is > 0.619 µM (inactive). Under `CCC(CC)NC(=O)Cc1ccccc1[N+](=O)[O-]` stands > 55.7 µM (inactive); under `CCN1CCN(C(=O)c2cc3c(-c4ccc(Cl)cc4)nn(C)c3s2)CC1`, > 55.7 µM (inactive); under `CCOc1ccccc1C1CC(c2cccs2)=NN1S(C)(=O)=O` (stereo unspecified), > 55.7 µM (inactive).

Regarding `CC(C)CC(=O)NC(=S)Nc1nc(-c2ccccc2)cs1`, the IC50 is 0.468 µM. In the case of `CN(C)C(CN1C(=O)C2CC=CCC2C1=O)c1cn(C)c2ccccc12` (stereo unspecified) it was > 55.7 µM (inactive).
